According to ChEMBL document CHEMBL1177755, “Bioactive xanthones from the stems of Cratoxylum formosum ssp. pruniflorum” (J Nat Prod, 2010):
Active and inactive are the calls of the source. The rule behind the calls is not given here.

Legend:
[1] = test system: CV-1; assay: Inhibition of RXRalpha transcriptional activity in african green monkey CV1 cells co-expressing with TREpal-tkCAT at 10 uM by reporter gene assay; type: cell-based; settings: Chlorocebus aethiops
[2] = test system: CV-1; assay: Inhibition of RXRalpha transcriptional activity in african green monkey CV1 cells co-expressing with TREpal-tkCAT by reporter gene assay; type: cell-based; settings: Chlorocebus aethiops

Row | Structure (SMILES) | Activity [1] | Activity [2]
1 | COc1c(O)ccc2oc3cccc(O)c3c(=O)c12 | Active | Dose-dependent effect
2 | COc1c(O)ccc2oc3c(O)ccc(O)c3c(=O)c12 | Active | Dose-dependent effect
3 | CC(C)=CCC/C(C)=C/Cc1c(O)c(O)cc2c(=O)c3c(O)c(CC=C(C)C)c(O)cc3oc12 | Active | –
4 | COc1cc2c(=O)c3c(O)cc(O)cc3oc2cc1O | Active | –
5 | COc1cc2oc3cc(O)c(O)c(CCC(C)(C)O)c3c(=O)c2c(O)c1CC=C(C)C | Active | Dose-dependent effect
6 | COc1cc2oc3cc(O)c(O)c(C/C=C(\C)CCC=C(C)C)c3c(=O)c2c(O)c1C/C=C(\C)CCC=C(C)C | Active | –
7 | COc1ccc(O)c2c(=O)c3cc(O)ccc3oc12 | Active | –
8 | CC(C)=CCc1c(O)c(CC=C(C)C)c2oc3cc(O)c(O)cc3c(=O)c2c1O | Active | –
9 | CC(C)=CCC/C(C)=C/Cc1c(O)c(CC=C(C)C)c(O)c2c(=O)c3cc(O)c(O)cc3oc12 | Active | –
